Results published in patent publication US20250163104A1, “MACROCYCLIC IMMUNOMODULATORS” (priority 2021, published 2025).
*1 amine or outer side, *2 acyl side, *3 side chain or, on linkers, in order; H or OH if unused. Where a SMILES comes first, the peptide text is derived from it. Bridges are numbered along the chain shown (N, C = ends). [ ]: non-standard residue; d: D form. The star is where a group is joined. Phe(3-CF3) = N[C@@H](Cc1cccc(C(F)(F)F)c1)C(=O)O; Ala(morpholin-4-yl) = N[C@@H](CN1CCOCC1)C(=O)O; Phe(4-COOH) = N[C@@H](Cc1ccc(C(=O)O)cc1)C(=O)O; Phg(4-Ph) = N[C@H](C(=O)O)c1ccc(-c2ccccc2)cc1; X8 = O=C([C@H](Cc1ccc2ccncc2c1)N[*:1])[*:2]; Bip = N[C@@H](Cc1ccc(-c2ccccc2)cc1)C(=O)O; Phe(3-Me) = Cc1cccc(C[C@H](N)C(=O)O)c1; Val(3-OH) = CC(C)(O)[C@H](N)C(=O)O; 3Pal = N[C@@H](Cc1cccnc1)C(=O)O; 4Pal = N[C@@H](Cc1ccncc1)C(=O)O; Cha = N[C@@H](CC1CCCCC1)C(=O)O; Cit = NC(=O)NCCC[C@H](N)C(=O)O; Ahp(2) = CCCCC[C@H](N)C(=O)O; Carboxymethyl = O=C(O)C*; Orn = NCCC[C@H](N)C(=O)O; Pra = C#CC[C@H](N)C(=O)O; Dab = NCC[C@H](N)C(=O)O; Dap = NC[C@H](N)C(=O)O; Propargyl = C#CC*

target: T1, human PD-1 / PD-L1-Ig binding on Jurkat cell line over-expressing human PD-1 (Jurkat-PD-1) (Homo sapiens, UniProt Q15116); assay: Jurkat-PD-1 Cell Binding High-Content Screening Assay (CBA); type: cell-based; details: Jurkat-PD-1 cells, PE-labeled PD-L1-Ig 20 nM final; read-out: Jurkat HPD1_PDL1 IC50
T1 construct: expressed in transfected cells; host or cells: Jurkat
Outline: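 Compounds were preincubated with Jurkat-hPD-1 cells in DMEM plus 10% fetal calf serum for 2 h at 37° C. Phycoerythrin-labeled PD-L1-Ig (20 nM final) was then added for 1 hour. Cells were fixed in 4% paraformaldehyde with Hoechst 33342, and bound fluorescence was quantified by high-content imaging.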

T1 sequence (Q15116 25-288): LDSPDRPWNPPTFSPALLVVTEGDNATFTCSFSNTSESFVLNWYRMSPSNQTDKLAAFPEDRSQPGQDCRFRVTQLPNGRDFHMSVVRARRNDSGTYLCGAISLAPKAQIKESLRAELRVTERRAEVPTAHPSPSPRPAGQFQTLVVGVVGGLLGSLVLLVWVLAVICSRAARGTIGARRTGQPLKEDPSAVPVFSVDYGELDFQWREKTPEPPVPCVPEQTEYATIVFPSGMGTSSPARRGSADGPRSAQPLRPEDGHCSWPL

IC50 [nM]	SMILES
6.1	Cc1cccc(C[C@@H]2NC(=O)[C@H](CC(=O)O)NC(=O)[C@H](Cc3ccc(OCC(=O)O)cc3)NC(=O)[C@H](Cc3ccncc3)NC(=O)CSC[C@@H](C(=O)N[C@@H](CCN)C(N)=O)NC(=O)[C@H]([C@@H](C)O)NC(=O)[C@H](C(C)(C)O)NC(=O)[C@H](CC3CCCCC3)NC(=O)[C@H](CCN)NC(=O)[C@@H](CC(C)C)NC(=O)[C@H](CCCN)NC(=O)[C@H](Cc3ccc(OCC(=O)O)cc3)NC(=O)[C@H](Cc3ccc(-c4ccccc4)cc3)NC(=O)[C@H](Cc3ccc(OCC(=O)O)cc3)NC2=O)c1 [Compound 2066] ({CH2CO}-[4Pal]Y(Carboxymethyl)D[Phe(3-Me)]Y(Carboxymethyl)[Bip]Y(Carboxymethyl)[Orn][dL][Dab][Cha][Val(3-OH)]TC[Dab]-NH2; thioether N-14)
4.9	Cc1cccc(C[C@@H]2NC(=O)[C@H](CC(=O)O)NC(=O)[C@H](Cc3ccc(OCC(=O)O)cc3)NC(=O)[C@H](Cc3cccnc3)NC(=O)CSC[C@@H](C(=O)N[C@@H](CCN)C(N)=O)NC(=O)[C@H](CCCN)NC(=O)[C@H](C(C)C)NC(=O)[C@H](CC3CCCCC3)NC(=O)[C@H](CCN)NC(=O)[C@@H](CC(C)C)NC(=O)[C@H](CCCN)NC(=O)[C@H](Cc3ccc(O)cc3)NC(=O)[C@H](Cc3ccc(-c4ccccc4)cc3)NC(=O)[C@H](Cc3ccc(O)cc3)NC2=O)c1 [Compound 2041] ({CH2CO}-[3Pal]Y(Carboxymethyl)D[Phe(3-Me)]Y[Bip]Y[Orn][dL][Dab][Cha]V[Orn]C[Dab]-NH2; thioether N-14)
8	CC(C)C[C@H]1NC(=O)[C@H](CCCN)NC(=O)[C@H](CCC(=O)O)NC(=O)[C@H](Cc2ccc(-c3ccccc3)cc2)NC(=O)[C@H](C(C)C)NC(=O)[C@H](Cc2c[nH]c3ccccc23)NC(=O)[C@H](CC(=O)O)NC(=O)[C@H](Cc2ccc(-c3cccc(C(=O)O)c3)cc2)NC(=O)[C@H](Cc2ccncc2)NC(=O)CSC[C@@H](C(=O)N[C@@H](C)C(N)=O)NC(=O)[C@H]([C@@H](C)O)NC(=O)[C@H](C(C)C)NC(=O)[C@H](CC2CCCCC2)NC(=O)[C@H](CCN)NC1=O [Compound 2164]
251	CCCCC[C@@H]1NC(=O)[C@H](C(C)C)NC(=O)[C@@H](Cc2ccccc2)NC(=O)[C@H](CC(=O)O)NC(=O)[C@H](CCCNC(=N)N)NC(=O)[C@H](c2ccc(-c3ccccc3)cc2)NC(=O)[C@H](C(C)C)NC(=O)[C@H](Cc2c[nH]c3ccccc23)NC(=O)[C@H](CC(=O)O)NC(=O)[C@H](Cc2ccc(O)cc2)NC(=O)[C@H](Cc2ccccc2)NC(=O)CSC[C@@H](C(=O)NCC(N)=O)NC(=O)[C@H](CO)NC(=O)[C@H](C(C)C)NC1=O [Compound 1000] ({CH2CO}-FYDWV[Phg(4-Ph)]RD[dF]V[Ahp(2)]VSCG-NH2; thioether N-14)
20.9	CC(C)C[C@@H]1NC(=O)[C@H](Cc2c[nH]c3ccccc23)NC(=O)[C@H](CC(=O)O)NC(=O)[C@H](Cc2ccc(C(=O)O)cc2)NC(=O)[C@H](Cc2ccc(OCC(=O)O)cc2)NC(=O)CSC[C@@H](C(=O)NCC(N)=O)NC(=O)[C@H](CO)NC(=O)[C@H](C(C)C)NC(=O)[C@H](CC2CCCCC2)NC(=O)[C@H](CC(N)=O)NC(=O)[C@@H](CC(C)C)NC(=O)[C@H](CCCN)NC(=O)[C@H](C(C)C)NC(=O)[C@H](Cc2ccc(-c3ccccc3)cc2)NC1=O [Compound 1335] ({CH2CO}-Y(Carboxymethyl)[Phe(4-COOH)]DWL[Bip]V[Orn][dL]N[Cha]VSCG-NH2; thioether N-14)
7.2	C#CCOc1ccc(C[C@@H]2NC(=O)[C@H](Cc3ccc(-c4ccccc4)cc3)NC(=O)[C@H](Cc3ccc(OCC(=O)O)cc3)NC(=O)[C@H](Cc3cccc(C)c3)NC(=O)[C@H](CC(=O)O)NC(=O)[C@H](Cc3ccc(OCC(=O)O)cc3)NC(=O)[C@H]([C@@H](C)O)NC(=O)CSC[C@@H](C(=O)N[C@@H](CCN)C(N)=O)NC(=O)[C@H](CCC(=O)O)NC(=O)[C@H](C(C)C)NC(=O)[C@H](CC3CCCCC3)NC(=O)[C@H](CCN)NC(=O)[C@@H](CC(C)C)NC(=O)[C@H](CCCN)NC2=O)cc1 [Compound 1836] ({CH2CO}-TY(Carboxymethyl)D[Phe(3-Me)]Y(Carboxymethyl)[Bip]Y(Propargyl)[Orn][dL][Dab][Cha]VEC[Dab]-NH2; thioether N-14)
26.4	CCCCC[C@@H]1NC(=O)[C@H](CCN)NC(=O)[C@@H](CC(C)C)NC(=O)[C@H](CCCN)NC(=O)[C@H](CCCNC(N)=O)NC(=O)[C@H](Cc2ccc(-c3ccccc3)cc2)NC(=O)[C@H](C(C)C)NC(=O)[C@H](Cc2c[nH]c3ccccc23)NC(=O)[C@H](CC(=O)O)NC(=O)[C@H](Cc2ccc(OCC(=O)O)cc2)NC(=O)[C@H](CN)NC(=O)CSC[C@@H](C(=O)N[C@@H](C)C(N)=O)NC(=O)[C@H]([C@@H](C)O)NC(=O)[C@H](C(C)C)NC1=O [Compound 1347] ({CH2CO}-[Dap]Y(Carboxymethyl)DWV[Bip][Cit][Orn][dL][Dab][Ahp(2)]VTCA-NH2; thioether N-14)
42.1	CCNC(=O)[C@H](C)NC(=O)[C@@H]1CSCC(=O)N[C@@H](Cc2ccncc2)C(=O)N[C@@H](Cc2ccc(C(=O)O)cc2)C(=O)N[C@@H](CC(=O)O)C(=O)N[C@@H](Cc2cccc(C)c2)C(=O)N[C@@H](C(C)C)C(=O)N[C@@H](Cc2ccc(-c3ccccc3)cc2)C(=O)N[C@@H]([C@@H](C)CC)C(=O)N[C@@H](CCCN)C(=O)N[C@H](CC(C)C)C(=O)N[C@@H](CCN)C(=O)N[C@@H](CC2CCCCC2)C(=O)N[C@@H](C(C)C)C(=O)N[C@@H]([C@@H](C)O)C(=O)N1 [Compound 2004]
7.4	C#CC[C@H](NC(=O)[C@H](CCN)NC(=O)[C@@H]1CSCC(=O)N[C@@H](CN)C(=O)N[C@@H](Cc2ccc(C(=O)O)cc2)C(=O)N[C@@H](CC(=O)O)C(=O)N[C@@H](Cc2cccc(C)c2)C(=O)N[C@@H](Cc2ccc(C(=O)O)cc2)C(=O)N[C@@H](Cc2ccc(-c3ccccc3)cc2)C(=O)N[C@@H](Cc2ccc(C(=O)O)cc2)C(=O)N[C@@H](CCCN)C(=O)N[C@H](CC(C)C)C(=O)N[C@@H](CCN)C(=O)N[C@@H](CC2CCCCC2)C(=O)N[C@@H](C(C)(C)O)C(=O)N[C@@H](Cc2cnc[nH]2)C(=O)N1)C(N)=O [Compound 1862] ({CH2CO}-[Dap][Phe(4-COOH)]D[Phe(3-Me)][Phe(4-COOH)][Bip][Phe(4-COOH)][Orn][dL][Dab][Cha][Val(3-OH)]HC[Dab][Pra]-NH2; thioether N-14)
20.2	CC(C)C[C@H]1NC(=O)[C@H](CCCN)NC(=O)[C@H](CCC(=O)O)NC(=O)[C@H](Cc2ccc(-c3ccccc3)cc2)NC(=O)[C@H](C(C)C)NC(=O)[C@H](Cc2cccc(Cl)c2)NC(=O)[C@H](CC(=O)O)NC(=O)[C@H](Cc2ccc(OCC(=O)O)cc2)NC(=O)[C@H](Cc2ccc(OCC(=O)O)cc2)NC(=O)CSC[C@@H](C(=O)N[C@@H](C)C(N)=O)NC(=O)[C@H]([C@@H](C)O)NC(=O)[C@H](C(C)C)NC(=O)[C@H](CC2CCCCC2)NC(=O)[C@H](CCN)NC1=O [Compound 1490]
785	CC(C)C[C@H]1NC(=O)[C@H](CCCN)NC(=O)[C@H](CCC(=O)O)NC(=O)[C@H](Cc2ccc(-c3ccccc3)cc2)NC(=O)[C@H](C(C)C)NC(=O)[C@H](Cc2ccc3ccncc3c2)NC(=O)[C@H](CC(=O)O)NC(=O)[C@H](Cc2ccc(OCC(=O)O)cc2)NC(=O)[C@H](CN)NC(=O)CSC[C@@H](C(=O)N[C@@H](C)C(N)=O)NC(=O)[C@H]([C@@H](C)O)NC(=O)[C@H](C(C)C)NC(=O)[C@H](CC2CCCCC2)NC(=O)[C@H](CCN)NC1=O [Compound 2144] ({CH2CO}-[Dap]Y(Carboxymethyl)D[X8]V[Bip]E[Orn][dL][Dab][Cha]VTCA-NH2; thioether N-14)
65.5	CC(C)C[C@H]1NC(=O)[C@H](CCCN)NC(=O)[C@H](CCCN)NC(=O)[C@H](Cc2ccc(-c3ccccc3)cc2)NC(=O)[C@H](Cc2ccc(C(=O)O)cc2)NC(=O)[C@H](Cc2cccc(C(F)(F)F)c2)NC(=O)[C@H](CC(N)=O)NC(=O)[C@H](Cc2ccc(OCC(=O)O)cc2)NC(=O)[C@H](CN2CCOCC2)NC(=O)CSC[C@@H](C(=O)N[C@@H](CCN)C(N)=O)NC(=O)[C@H](CCCN)NC(=O)[C@H](C(C)C)NC(=O)[C@H](CC2CCCCC2)NC(=O)[C@H](CCN)NC1=O [Example 2726] ({CH2CO}-[Ala(morpholin-4-yl)]Y(Carboxymethyl)N[Phe(3-CF3)][Phe(4-COOH)][Bip][Orn][Orn][dL][Dab][Cha]V[Orn]C[Dab]-NH2; thioether N-14)
78.1	CC(C)C[C@@H]1NC(=O)[C@H](Cc2c[nH]c3ccccc23)NC(=O)[C@H](CC(=O)O)NC(=O)[C@H](Cc2ccc(O)cc2)NC(=O)[C@H](Cc2ccccc2)NC(=O)CSC[C@@H](C(=O)NCC(N)=O)NC(=O)[C@H](CO)NC(=O)[C@H](C(C)C)NC(=O)[C@H](CC2CCCCC2)NC(=O)[C@H](CC(N)=O)NC(=O)[C@@H](CC(C)C)NC(=O)[C@H](CN)NC(=O)[C@H](C(C)C)NC(=O)[C@H](Cc2ccc(-c3ccccc3)cc2)NC1=O [Compound 1392] ({CH2CO}-FYDWL[Bip]V[Dap][dL]N[Cha]VSCG-NH2; thioether N-14)
7.7	C#CC[C@H](NC(=O)[C@@H](C)NC(=O)[C@@H]1CSCC(=O)N[C@@H](Cc2c[nH]cn2)C(=O)N[C@@H](Cc2ccc(OCC(=O)O)cc2)C(=O)N[C@@H](CC(=O)O)C(=O)N[C@@H](Cc2c[nH]c3ccccc23)C(=O)N[C@@H](C(C)C)C(=O)N[C@@H](Cc2ccc(-c3ccccc3)cc2)C(=O)N[C@@H](C(C)C)C(=O)N[C@@H](CCCN)C(=O)N[C@H](CC(C)C)C(=O)N[C@@H](CCN)C(=O)N[C@@H](CC2CCCCC2)C(=O)N[C@@H](C(C)(C)O)C(=O)N[C@@H](CO)C(=O)N1)C(N)=O [Compound 2326] ({CH2CO}-HY(Carboxymethyl)DWV[Bip]V[Orn][dL][Dab][Cha][Val(3-OH)]SC[dA][Pra]-NH2; thioether N-14)
